# Experimental data reported in patent US4833079A, “Process for producing 3,7-dihydroxytropolone and antitumor use thereof” (Bristol-Myers Company, priority 1986, dated 1989).
# Like-named read-outs stand apart in the source and are kept apart here.
# Key:
# [1] = test system: L1210 leukemia cells; experiment: inhibition of macromolecule biosynthesis in cultured L1210 leukemia cells (incorporation of radioactive precursors); assay type: cell-based; settings: Mus musculus
# Procedure: (§1) BU-3129T (3,7-dihydroxytropolone) and its analogs were tested for in vitro cytotoxicity against logarithmically growing murine melanoma tumor cells in liquid culture. B16-F10 cells (4×10^4 cells) in the enriched MEM (Minimum essential medium (Eagle's)) containing test material solution were planted into wells of 96-well microtiter plates and incubated at 37° C., with 5% CO2 under high humidity for 72 hours. After staining with neutral red, cytotoxicity of test material was determined colorimetrically. The inhibitory effects on macromolecule biosynthesis were examined in cultured L1210 leukemia cells. L1210 cells (5×10^5 cells) were exposed to radioactive precursors (^3 H-thymidine, ^14 C-uridine and ^3 H-leucine) for 60 min after the treatment with test material for 15 min. The incorporated radioactivities into acid-insoluble fractions were measured by using a liquid scintillation counter. The in vivo antitumor activity of BU-3129T was determined in male BDF1 mice against leukemia P388 and melanoma B16. Leukemia P388 and melanoma B 16 were inoculated by the intraperitoneal injection at 10^6 cells and 0.5 ml of a 10% tumor brei per mouse, respectively. Test material was administered to mice intraperitoneally once daily through 1 to 9 days after tumor implantation. Tropolone and mitomycin C were comparatively tested in the experiments.
# [2] = test system: melanoma B16; experiment: in vivo antitumor activity against melanoma B16 in male BDF1 mice; settings: for antitumor activity against melanoma B16: in words, mice
# Procedure: as §1
# [3] = test system: B16-F10 cells; experiment: in vitro cytotoxicity against B16-F10 murine melanoma cells (neutral red, 72 hours); assay type: cell-based; settings: for IC50: Mus musculus, read-out: Cytotoxicity vs B16 IC50
# Procedure: as §1
# [4] = test system: leukemia P388; assay type: in vivo, mice; settings: for MST / T/C: qd 1→9, ip
# Procedure: as §1
# [5] = solubility; assay type: physicochemical
# [6] = in words; Kirst paper; cited from earlier work
# [7] = test system: mammalian malignant tumors; experiment: inhibitory action against mammalian malignant tumors (summary statement); settings: in words
# Procedure: as §1
# [8] = Exp. 2, 1.0 mg/kg/day, qd 1→9, ip
# [9] = Exp. 2, 3.0 mg/kg/day, qd 1→9, ip
# [10] = Exp. 2, 10 mg/kg/day, qd 1→9, ip
# [11] = Exp. 2, 30 mg/kg/day, qd 1→9, ip
# [12] = Exp. 1, 0.1 mg/kg/day, qd 1→9, ip
# [13] = Exp. 1, 0.3 mg/kg/day, qd 1→9, ip
# [14] = Exp. 1, 1.0 mg/kg/day, qd 1→9, ip
# [15] = L1210, DNA, 3H-thymidine, 60 min after 15 min treatment, read-out: Inhibition of macromolecule biosynthesis vs L1210 IC50, DNA
# [16] = L1210, Protein, 3H-leucine, 60 min after 15 min treatment, read-out: Inhibition of macromolecule biosynthesis vs L1210 IC50, Protein
# [17] = L1210, RNA, 14C-uridine, 60 min after 15 min treatment, read-out: Inhibition of macromolecule biosynthesis vs L1210 IC50, RNA
# [18] = Exp. 1, 0.16 mg/kg/day, qd 1→9, ip
# [19] = Exp. 1, 2.5 mg/kg/day, qd 1→9, ip
smiles,measurement,setting,value
O=c1cccccc1O [Tropolone],IC50,"[1]; L1210, read-out: Inhibition of macromolecule biosynthesis vs L1210 IC50, DNA",2.2 µg/mL
same,IC50,"[1]; L1210, read-out: Inhibition of macromolecule biosynthesis vs L1210 IC50, Protein",9.9 µg/mL
same,IC50,"[1]; L1210, read-out: Inhibition of macromolecule biosynthesis vs L1210 IC50, RNA",20 µg/mL
same,Average weight change on day 5,[2]; [8],+2.3 g
same,MST,[2]; [8],19.0 days
same,T/C,[2]; [8],112%
same,Average weight change on day 5,[2]; [9],+2.5 g
same,MST,[2]; [9],17.5 days
same,T/C,[2]; [9],103%
same,Average weight change on day 5,[2]; [10],+3.3 g
same,MST,[2]; [10],18.0 days
same,T/C,[2]; [10],106%
same,Average weight change on day 5,[2]; [11],+2.0 g
same,MST,[2]; [11],18.0 days
same,T/C,[2]; [11],106%
same,antitumor activity against melanoma B16,[2]; ip,did not show any activity
same,IC50,"[3]; B16-F10 cells, 72 hours",1.8 µg/mL
same,potency order in the in vitro cytotoxicity test,[3]; in words,"follow by 7-hydroxytropolone, 4,7-dihydroxytropolone, tropolone and 5-hydroxytropolone"
CO[C@@]12[C@H](COC(N)=O)C3=C(C(=O)C(C)=C(N)C3=O)N1C[C@@H]1N[C@@H]12 [Mitomycin C],Average weight change on day 5,[2]; [12],+1.0 g
same,MST,[2]; [12],16.0 days
same,T/C,[2]; [12],100%
same,Average weight change on day 5,[2]; [13],+0.4 g
same,MST,[2]; [13],22.0 days
same,Average weight change on day 5,[2]; [14],+0.6 g
same,MST,[2]; [14],27.0 days
same,MST,[4]; 0.08 mg/kg/day,12.0 days
same,T/C,[4]; 0.08 mg/kg/day,114%
same,MST,[4]; 0.16 mg/kg/day,15.0 days
same,MST,[4]; 0.31 mg/kg/day,16.0 days
same,MST,[4]; 1.3 mg/kg/day,21.0 days
same,IC50,"[3]; B16-F10, 72 h",2 µg/mL
O=c1ccc(O)ccc1O [5-hydroxytropolone],IC50,[1]; [15],> 100 µg/mL
same,IC50,[1]; [16],100 µg/mL
same,IC50,[1]; [17],> 100 µg/mL
same,potency order in the in vitro cytotoxicity test,[3],"follow by 7-hydroxytropolone, 4,7-dihydroxytropolone, tropolone and 5-hydroxytropolone"
same,IC50,"[3]; B16-F10, 72 h",2.4 µg/mL
"O=c1c(O)ccc(O)cc1O [4,7-dihydroxytropolone]",IC50,[1]; [15],39 µg/mL
same,IC50,[1]; [16],> 100 µg/mL
same,IC50,[1]; [17],> 100 µg/mL
same,potency order in the in vitro cytotoxicity test,[3],"follow by 7-hydroxytropolone, 4,7-dihydroxytropolone, tropolone and 5-hydroxytropolone"
same,IC50,"[3]; B16-F10, 72 h",0.38 µg/mL
"O=c1c(O)cccc(O)c1O [BU-3129T, 3,7-dihydroxytropolone]",solubility,[5]; dimethylformamide,readily soluble
same,solubility,[5]; dimethylsulfoxide,readily soluble
same,solubility,[5]; ethanol,slightly soluble
same,solubility,[5]; methanol,slightly soluble
same,solubility,[5]; other organic solvents,practically insoluble
same,solubility,[5]; water,slightly soluble
same,IC50,"[1]; L1210, DNA, RNA and protein together, non-specific, read-out: inhibitory effects on DNA, RNA and protein biosynthesis, IC50 values",9 to 14 µg/mL
same,IC50,[1]; [15],9.4 µg/mL
same,IC50,[1]; [16],11 µg/mL
same,IC50,[1]; [17],14 µg/mL
same,antimicrobial activity,[6],possesses antimicrobial activity
same,inhibitory action against mammalian malignant tumors,[7],marked inhibitory action
same,MST,[2]; [18],16.0 days
same,T/C,[2]; [18],100%
same,MST,"[2]; Exp. 1, 0.31 mg/kg/day, qd 1→9, ip",18.0 days
same,MST,"[2]; Exp. 1, 0.63 mg/kg/day, qd 1→9, ip",23.0 days
same,MST,"[2]; Exp. 1, 1.3 mg/kg/day, qd 1→9, ip",29.0 days
same,MST,[2]; [19],12.0 days
same,T/C,[2]; [19],75%
same,toxicity,"[2]; Exp. 1, 5.0 mg/kg/day, qd 1→9, ip",tox
same,antitumor activity against melanoma B16,[2]; ip,significant antitumor activity
same,Average weight change on day 5,"[2]; mouse, in vivo, ip, 0.16 mg/kg/day",+0.4 g
same,Average weight change on day 5,"[2]; mouse, in vivo, ip, 0.31 mg/kg/day",+1.2 g
same,Average weight change on day 5,"[2]; mouse, in vivo, ip, 0.63 mg/kg/day",+1.0 g
same,Average weight change on day 5,"[2]; mouse, in vivo, ip, 1.3 mg/kg/day",+0.4 g
same,Average weight change on day 5,"[2]; mouse, in vivo, ip, 2.5 mg/kg/day",-0.8 g
same,MST,[4]; 0.16 mg/kg/day,11.0 days
same,T/C,[4]; 0.16 mg/kg/day,105%
same,MST,[4]; 0.31 mg/kg/day,11.0 days
same,T/C,[4]; 0.31 mg/kg/day,105%
same,MST,[4]; 0.63 mg/kg/day,10.0 days
same,T/C,[4]; 0.63 mg/kg/day,95%
same,MST,[4]; 1.3 mg/kg/day,11.0 days
same,T/C,[4]; 1.3 mg/kg/day,105%
same,MST,[4]; 2.5 mg/kg/day,10.0 days
same,T/C,[4]; 2.5 mg/kg/day,95%
same,antitumor activity against leukemia P388,"[4]; in words, mice, ip",no activity
same,potency order in the in vitro cytotoxicity test,[3],most potent
same,IC50,"[3]; B16-F10, 72 h",0.04 µg/mL
same,times more cytotoxic against B16 melanoma than tropolone and the hydroxytropolones compared,"[3]; mouse, 4320 min",10-40 times
O=c1c(O)ccccc1O [7-hydroxytropolone],IC50,[1]; [15],21 µg/mL
same,IC50,[1]; [16],> 100 µg/mL
same,IC50,[1]; [17],41 µg/mL
same,potency order in the in vitro cytotoxicity test,[3],"follow by 7-hydroxytropolone, 4,7-dihydroxytropolone, tropolone and 5-hydroxytropolone"
same,IC50,"[3]; B16-F10, 72 h",0.3 µg/mL
